Laboratory results as given in PMC10895676, “Antiviral Activity of Lipophilic Nucleoside Tetraphosphate Compounds” (Journal of Medicinal Chemistry, 2024).
“Also recorded” adds a separate entry of the source.

Molecular target: T1, human DNA polymerase γ (Homo sapiens, UniProt P54098)
T1 construct: purchased Chimerx
T1 sequence (P54098 1-1239): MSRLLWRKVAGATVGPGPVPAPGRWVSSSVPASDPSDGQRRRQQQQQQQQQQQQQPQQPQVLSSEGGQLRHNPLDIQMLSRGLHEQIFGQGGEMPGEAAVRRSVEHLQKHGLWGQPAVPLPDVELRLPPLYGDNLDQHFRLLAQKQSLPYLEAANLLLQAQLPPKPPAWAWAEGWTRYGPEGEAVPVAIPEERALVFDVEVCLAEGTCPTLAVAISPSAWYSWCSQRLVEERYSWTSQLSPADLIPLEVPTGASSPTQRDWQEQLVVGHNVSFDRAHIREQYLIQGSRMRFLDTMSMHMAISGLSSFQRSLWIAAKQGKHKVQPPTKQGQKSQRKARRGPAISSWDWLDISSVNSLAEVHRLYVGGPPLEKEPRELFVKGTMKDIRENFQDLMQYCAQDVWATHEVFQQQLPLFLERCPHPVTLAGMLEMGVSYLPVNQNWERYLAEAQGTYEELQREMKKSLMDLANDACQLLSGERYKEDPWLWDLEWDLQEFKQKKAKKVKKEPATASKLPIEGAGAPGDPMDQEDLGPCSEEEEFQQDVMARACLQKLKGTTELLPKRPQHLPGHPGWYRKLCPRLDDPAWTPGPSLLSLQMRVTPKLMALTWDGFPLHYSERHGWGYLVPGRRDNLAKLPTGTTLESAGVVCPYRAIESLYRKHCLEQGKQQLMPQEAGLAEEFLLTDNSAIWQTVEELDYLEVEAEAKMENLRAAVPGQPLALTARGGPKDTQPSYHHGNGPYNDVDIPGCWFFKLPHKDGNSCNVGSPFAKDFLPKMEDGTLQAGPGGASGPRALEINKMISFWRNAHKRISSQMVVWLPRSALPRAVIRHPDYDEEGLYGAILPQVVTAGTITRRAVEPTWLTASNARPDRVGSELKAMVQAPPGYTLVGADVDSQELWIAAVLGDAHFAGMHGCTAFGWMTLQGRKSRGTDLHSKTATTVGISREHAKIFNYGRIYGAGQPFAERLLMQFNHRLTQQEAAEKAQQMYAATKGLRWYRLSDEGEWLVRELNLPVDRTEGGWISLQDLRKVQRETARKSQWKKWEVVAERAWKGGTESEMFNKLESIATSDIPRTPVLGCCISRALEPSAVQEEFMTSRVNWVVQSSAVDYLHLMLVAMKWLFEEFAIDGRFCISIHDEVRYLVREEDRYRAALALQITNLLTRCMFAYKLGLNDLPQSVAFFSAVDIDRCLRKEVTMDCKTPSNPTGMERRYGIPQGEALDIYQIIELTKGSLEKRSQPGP
Assay: Primer extension assay using human DNA polymerase γ
Type: biochemical
Settings: 120 min, 2 U, 37 °C
From the text: Encouraged by the previously obtained results that γ-phosphate-modified-d4TDPs 3, γ-monoalkylated d4TTP derivatives as well as d4TDP were accepted as substrates by HIV-RT,[49],[50],[55],[59]−[61] δ-dialkylated d4T tetraphosphate analogues 4,5, δ-monoalkylated d4T tetraphosphate analogues 20 and 24 and d4T4P were investigated in primer extension assays in the presence of HIV-RT or the three different human DNA polymerases α, β and γ. D4TTP (for the compounds 4–9) and the natural thymidine triphosphate (TTP) were used as reference compounds.
Figure 6 Primer extension assay using HIV-RT (A), human polymerases α (B), β (C), and γ (D). (Figure 6A). Primer extension assay using HIV-RT (30 min, 6U). Lane 1: (+) dATP, dCTP, dGTP, and TTP with HIV-RT. Lane 2: (−) dATP, dCTP, dGTP, and TTP without HIV-RT. Lane 3: TTP. […] Lane 5: δ-(C4; C18)-d4T4P 4d. […] Lane 7: δ-(C18)-d4T4P 20. Lane 8: δ-C-(C18)-d4T4P 24. Lane 9: d4T4P. Lane 10: d4TTP. Lane 11: d4TDP. HIV-RT assay reaction conditions: 50 mM Tris–HCl (pH 8.6), 10 mM MgCl2, 40 mM KCl, 250 μM dNTPs, HIV-RT (6 U), 0.20 μM DNA hybrid, primer-template-hybrid 0.32 mM in a reaction volume of 10 μL, incubated at 37 °C for 0.5 h, 80 °C for 7 min. Primer extension assays: 50 mA, 45 w for 4 h. (Figure 6B). For human DNA polymerase α assay (60 min, 2 U): Lane 1: (+) dATP, dCTP, dGTP, and TTP with human polymerase α. Lane 2: (−) dATP, dCTP, dGTP, and TTP without human polymerase α. Lane 3: TTP. […] Lane 5: δ-(C4; C18)-d4T4P 4d. […] Lane 7: δ-(C18)-d4T4P 20. Lane 8: δ-C-(C18)-d4T4P 24. Lane 9: d4T4P. Lane 10: d4TTP. Human DNA polymerase α assay conditions: 60 mM Tris–HCl (pH 8), 5 mM Mg(OAc)2, 100 mM KCl, 1.0 mM dithiothreitol, 0.1 mM spermine, 0.01% (w/v) bovine serum albumin, 250 μM dNTPs, 2 U human polymerase α, 0.20 μM DNA hybrid, and primer-template-hybrid 0.32 mM in a reaction volume of 10 μL, incubated at 37 °C for 1 h, 80 °C for 7 min. Primer extension assays: 50 mA, 45 w for 3 h. (Figure 6C). For human DNA polymerase β assay (60 min, 2 U): Lane 1: (+) dATP, dCTP, dGTP, and TTP with human polymerase β. […]

Structure (SMILES) | substrate for human DNA polymerase γ (primer extension)
CCCCCCCCCCCCCCCCCCOP(=O)(O)OP(=O)(O)OP(=O)(O)OP(=O)(O)OC[C@@H]1C=C[C@H](n2cc(C)c(=O)[nH]c2=O)O1 [compound 20, δ-(Alkyl-C18)-d4T4P] | nonsubstrates
CCCCCCCCCCCCCCCCCCP(=O)(O)OP(=O)(O)OP(=O)(O)OP(=O)(O)OC[C@@H]1C=C[C@H](n2cc(C)c(=O)[nH]c2=O)O1 [compound 24, δ-C-(Alkyl-C18)-d4T4P] | nonsubstrates
Cc1cn([C@H]2C=C[C@@H](COP(=O)(O)OP(=O)(O)OP(=O)(O)OP(=O)(O)O)O2)c(=O)[nH]c1=O [d4T4P, 2′,3′-didehydro-2′,3′-dideoxythymidine-5′-tetraphosphate] | nonsubstrates; also recorded: not a substrate
